From patent publication US20220133767A1, “TARGETING MICRORNAS TO OVERCOME DRUG TOLERANCE AND RESISTANCE” (Beth Israel Deaconess Medical Center, Inc., priority 2019, published 2022)
Entries after “also recorded” stand apart in the source; their conditions may differ.

What was measured:
H1975 cells [1] = experiment: Cell viability of osimertinib-treated H1975 cells co-incubated with SDH inhibitor dimethyl malonate; type: cell-based, human; details: 100 nM osimertinib co-incubated with 0, 0.03, 0.1 mM DMM for 3 days
Description: (§1) Compound Treatment. Cell viability experiments were performed in 96-well format using opaque white plates (Corning). For 2D monolayer cell cultures and organoids, cells were plated into 96-well plates with 100-2000 cells per well in three-four replicates on day 0. Twenty-four hours after seeding, cells or organoids were exposed to compounds at indicated concentrations for 72 hours. Cellular ATP levels (as a surrogate for viability) were measured using CeliTiter-Glo (Cat #G7570, Promega) or CeliTiter-Glo 3D (Cat #G9681, Promega). For co-treatment experiments, spent medium was removed 24 hours after cell seeding and replaced with medium containing a single concentration of the modulator of interest (for example, osimertinib).

[2] = test system: pseudohypoxia genes in H1975 cells; experiment: qRT-PCR analysis of hypoxia (pseudohypoxia) gene expression; type: cell-based, human
Description: Transfection by LNAs in vitro. Tumor cells were plated at 2,000 cells in complete growth medium in a 96 well plate to reach 50-60% confluence. 0˜120 nM of fluorescein-conjugated LNA anti-miR-147b (Sequence: […]; SEQ ID NO: 890) (Cat #4100977-011) or negative control (Sequence: TAACACGTCTATACGCCCA; SEQ ID NO: 891) (Cat #199006-011, Exiqon) with PureFection (System Biosciences) were applied for transfection. The transfected cells were harvested after culturing for 48 and 72 hours.

H1975 organoids [3] = experiment: Fractional viability of H1975 organoids treated with osimertinib, LNA miR-147b inhibitor, DMOG, R59949 or combinations for 14 days; type: cell-based, human
Description: (§2) For 3D organoid formation, single-cell suspensions (2000 cells/well/20 μl) were co-plated with geltrex (25 μl) in 96-well non-treated clear plates (Corning, cat #08-772-53). The plate was incubated for 20 minutes at 37° C. followed by adding 100 μl complete growth media. The complete growth media was advanced DMEM/F12 with glutamax (1×), HEPES (1×), 1.25 mM N-Acetylcysteine, 10 mM Nicotinamide, 10 μM Forskolin, B27 (1×), 5 ng/ml Noggin, 100 ng/ml FGF10, 20 ng/ml FGF2, 50 ng/ml EGF, 10 ng/ml PDGFA, 10 ng/ml FGF7, 1% penicillin-streptomycin, and 10 μM Y-27632. Y-27632 was used only for the initial three days because Y27632 is a rock inhibitor preventing apoptosis of single cells (Watanabe et al., Nat. Biotechnol. 25(6):681-686, 2007). PDGFA and FGF7 were not used until day 7 in organoid cultures because they are important for alveolarization during late lung development (Padela et al., Pediatr. Res. 63(3):232-8, 2008; Bostrom et al., Cell 85(6):863-873, 1996). FGF10 is essential for maintenance of lung progenitor cells and branching morphogenesis as well as tissue homeostasis in the adult lung (Sekine et al., Nat. Genet. 21(1):138-141, 1999). […] The organoids were photographed with a microscope (Evos Fla., Life Technology) and their size was measured by ImageJ. […]

PC9 cells = experiment: Single cell clonogenicity / frequency of drug-tolerant clones; details: 0.1, 0.4 and 2 μM gefitinib (all three groups), 14 days, vehicle 8.3%±0.7%
HCC827 cells = test system: HCC827 cells
Description: as §1
(§3) Lentiviral-mediated miRNA and VHL Overexpression or Knockdown Infection.

PDX_LU_10 organoids = experiment: Pretreatment response on lung PDX organoids (organoid size); type: cell-based, human
Excerpt: Patient-derived Xenograft Tumor Specimens. Tumor samples from patient-derived xenografts (PDXs) were generated at The Jackson Laboratory and the Yale Cancer Center by subcutaneous implantation of previously passaged tumors in up to 5 female NSG mice. When tumor samples reached 1000 mm^3 they were shipped to the laboratory in frozen media of DMEM with 90% FBS and 10% DMSO in dry ice. Samples were washed with cold phosphate buffer saline (PBS) with antibiotics (Sigma-Aldrich, St. Louis, Mo.) three times, chopped with a sterile blade, and incubated in 0.001% deoxyribonuclease (DNase) (Sigma-Aldrich, St. Louis, Mo.), 1 mg/ml collagenase/dispase (Roche, Indianapolis, Ind.), 200 U/ml penicillin, 200 μg/ml streptomycin, 0.5 μg/ml amphotericin B (2% antibiotics, Sigma) in DMEM/F12 medium (GIBCO, Grandlsland, N.Y.) at 37° C. water bath for 3 hours with intermittent shaking. After incubation, the suspensions were repeatedly triturated, passed through 70 μm and 40 μm cell-strainers (BD Falcon, San Jose, Calif.), and centrifuged at 122 g for 5 minutes at 4° C. Cells were resuspended in red blood cell lysis buffer (eBioscience, San Diego, Calif.) for 4 minutes at room temperature with intermittent shaking, before resuspension in serum-free medium. After lysis, cell viability was evaluated by trypan blue dye exclusion.
(§4) The plate was incubated for 20 minutes at 37° C. followed by adding 100 μl complete growth media. […] The media was changed every three days in 24 days. The organoids were photographed with a microscope (Evos Fla., Life Technology) and their size was measured by ImageJ.
Transfection by LNAs in vitro. Tumor cells were plated at 2,000 cells in complete growth medium in a 96 well plate to reach 50-60% confluence. […] The transfected cells were harvested after culturing for 48 and 72 hours.

H1975 organoids [4] = experiment: Organoid number after lentiviral miR-147b inhibition and/or osimertinib; type: cell-based, human
Description: as §4, §3

H1975 cells [5] = experiment: Cell viability of H1975 cells with HIF1A or EPAS1 knockdown or HIF1A A588T treated with osimertinib; type: cell-based, human; details: 3 days
Description: HIF1A and EPAS1 shRNAs and cDNA transfection. H1975 cells were seeded in a 6-well plate at 100,000 cells per well one day prior to transfection. A mixture of 2.5 μg pGFP-C-shLenti vector targeting HIF1A (OrGene, Cat #320380), EPAS1 (OriGene, Cat #TL315484), scrambled negative control (Cat #TR30021), lentiviral vector targeting HIF1A mutantA588T (OrGene, Cat #RC402571), control vector and 7.5 μL of PureFection (System Biosciences, Cat #LV750A-1) were used for transfection. The transfected cells were selected and maintained in 0.5 μg/ml puromycin (for shRNAs) or 600 μg/ml neomycin (for HIF1A A5887) in DMEM containing with 10% FBS for 9 days. Then the stable cells were passaged into 96-well plate at 3,000 cells per well followed by treatment with 100 nM osimertinib for 3 days. hsa-HIF1A targeting sequences: shRNA 1: […] (SEQ ID NO: 892), shRNA 2: […] (SEQ ID NO: 893), shRNA 3: […] (SEQ ID NO: 894), shRNA 4: […] (SEQ ID NO: 895). hsa-EPAS1 targeting sequences: shRNA 1: […] (SEQ ID NO: 896), shRNA 2: […] (SEQ ID NO: 897), shRNA 3: […] (SEQ ID NO: 898), shRNA 4: […] (SEQ ID NO: 899).

H1975 organoids [6] = experiment: Osimertinib treatment response (cell viability) on H1975 organoids transfected with LNA miR-147b inhibitor; type: cell-based, human; details: 120 nM LNA miR-147b inhibitor
Description: as §2

COC(=O)CC(=O)OC [DMM, dimethyl malonate]
drug-tolerance to osimertinib (cell viability) (H1975 cells [1]): promotes drug-tolerance; also recorded: effectively rescued

COC(=O)CNC(=O)C(=O)OC [DMOG, dimethyloxaloylglycine]
pseudohypoxia gene levels reduced by miR-147b knockdown, on co-treatment with DMOG ([2]; H1975, 90 nM LNA miR-147b inhibitor + 10 μM DMOG): rescued significantly | expression of pseudohypoxia genes ([2]; H1975, single dose of 10 μM DMOG vs vehicle): upregulated expression | osimertinib-tolerance (fractional viability) on co-treatment with DMOG (H1975 organoids [3]; osimertinib 25 nM, LNA-anti147b 90 nM, DMOG 10 μM): rescued reduced osimertinib-tolerance

O=c1c2ccccc2[nH]c(=S)n1CCN1CCC(=C(c2ccc(F)cc2)c2ccc(F)cc2)CC1 [R59949]
pseudohypoxia gene levels reduced by LNA-miR-147b inhibitor, on co-treatment with R59949 ([2]; H1975 cells, 90 nM LNA miR-147b inhibitor + 30 μM R59949, three days): further inhibited | expression of pseudohypoxia genes ([2]; H1975 cells, single dose of 30 μM R59949 vs vehicle): downregulation

COc1cc2ncnc(Nc3ccc(F)c(Cl)c3)c2cc1OCCCN1CCOCC1 [gefitinib]
frequency of colony formation (PC9 cells): 3.6%±0.3

C=CC(=O)Nc1cc(Nc2nccc(-c3cn(C)c4ccccc34)n2)c(OC)cc1N(C)CCN(C)C [osimertinib]
enhancement of drug-tolerance at the half-maximum inhibitory concentration (IC50) by enforced overexpression of miR-147b (HCC827 cells): 60 fold | decrease of size of the tumor organoids (PDX_LU_10 organoids; 25 nM osimertinib on day 1 and 4, day 6): 50% | increase (recovery) of organoid size (PDX_LU_10 organoids; 25 nM osimertinib on day 1 and 4, day 14): 40% | decrease of total number of organoids compared with the control group (H1975 organoids [4]): two-fold | increase of drug-tolerance towards osimertinib upon overexpression of HIF1A A588T (H1975 cells [5]; 100 nM osimertinib): up to two-fold | increase of cell sensitivity towards osimertinib upon HIF1A knockdown (H1975 cells [5]; lentiviral shRNAs against HIF1A, 100 nM osimertinib): up to 2.6 fold | drug sensitivity towards osimertinib upon HIF2A knockdown (H1975 cells [5]; lentiviral shRNAs against HIF2A/EPAS1, 100 nM osimertinib): did not change

LNA miR-147b inhibitor: fluorescein-conjugated LNA anti-miR-147b, sequence AGCAGAAGCATTTCCGCACA (SEQ ID NO: 890), Cat #4100977-011 (LNA-modified, fluorescein conjugated, pattern and position not given here)
decrease of IC50 for osimertinib / increase of sensitivity of drug-tolerant organoids to osimertinib, compared to scrambled control (H1975 organoids [6]): 30 fold | decrease of osimertinib-tolerance compared with control cells (PDX_LU_10 organoids; 90 nM LNA miR-147b inhibitor on day 0 and day 2 + 25 nM osimertinib, day 8): 80% | PDX organoids volume increase, as % of that in control cells with the single agent of osimertinib (PDX_LU_10 organoids; LNA miR-147b inhibitor pretreatment + osimertinib, day 8 to day 14): no more than 10% | expression levels of pseudohypoxia genes ([2]; H1975 cells, 90 nM LNA miR-147b inhibitor, three days, vs scrambled control): reduced expression levels | osimertinib-tolerance (fractional viability) (H1975 organoids [3]; osimertinib 25 nM + LNA-anti147b 90 nM): reduced osimertinib-tolerance
